One test relates to Bacillus subtilis. As to the kind of experiment: Antibacterial activity against Bacillus subtilis ATCC 6633 assessed as bacterial growth inhibition measured after 48 hrs by resazurin dye based assay. Format: functional. On the technique in general: The colour change of resazurin is a common sign of viable cells or microbes.
For a further test, the system named is Escherichia coli. Nature of the test: Antibacterial activity against Escherichia coli ATCC 25922 assessed as bacterial growth inhibition measured after 48 hrs by resazurin dye based assay. Format: functional, organism-based.
A further test deals with Staphylococcus aureus. Nature of the test: Antibacterial activity against Staphylococcus aureus ATCC 25923 assessed as bacterial growth inhibition measured after 48 hrs by resazurin dye based assay. The format is functional.
A short description of test [1]: Antiproliferative activity against mouse NS-1 cells assessed as cell growth inhibition measured after 72 hrs by resazurin dye based assay. Format: functional. To be noted: for IC50: NS1, 72 h.
A further test deals with Giardia intestinalis. Nature of the test: Antiprotozoal activity against Giardia duodenalis 713 assessed as protozoal growth inhibition measured after 96 hrs under anaerobic conditions. Format: functional.
The test system of the next test is Saccharomyces cerevisiae. Nature of the test: Antifungal activity against Saccharomyces cerevisiae ATCC 9763 assessed as fungal growth inhibition measured after 48 hrs by bromocresol green staining based method. Format: functional.

Converted amounts (≈) assume the structure as drawn.

In general, MIC refers to the lowest concentration that inhibits growth of the organism. For the compound GENTAMICIN, the minimum inhibitory concentration (MIC) with Bacillus subtilis was 0.8 µM; with Escherichia coli it was 1.7 µM; in the test on Staphylococcus aureus, 0.8 µM.
What is called IC50 is the concentration at which inhibition is half-maximal. Take `C[C@@H]1C[C@@H](O)CCCCCCC[C@H](O)[C@H](O)/C=C/C(=O)O1`: the 50% inhibitory concentration (IC50) in test [1] amounted to 32 µM. Besides, the LD99 with Giardia intestinalis came to 50 µg/mL. Also, the minimum inhibitory concentration (MIC) with Staphylococcus aureus is 50 µg/mL.
`COC(=O)CCC(=O)O[C@H]1CCCCCCCCC[C@@H](C)OC(=O)/C=C/[C@H]1O`: the minimal inhibitory concentration (MIC) amounted to 12.5 µg/mL in the test on Bacillus subtilis and 25 µg/mL in the test with Staphylococcus aureus. For the same compound, the IC50 in test [1] was 5.9 µM.
On to `C[C@@H]1[C@H](O)[C@@H](C)/C=C/C=C/C=C/C=C/C=C/C=C/C=C/[C@H](O[C@@H]2O[C@H](C)[C@@H](O)[C@H](N)[C@@H]2O)C[C@@H]2O[C@](O)(C[C@@H](O)C[C@@H](O)[C@H](O)CC[C@@H](O)C[C@@H](O)CC(=O)O[C@H]1C)C[C@H](O)[C@H]2C(=O)O` [AMPHOTERICIN B], for which the MIC in the test with Saccharomyces cerevisiae is 0.3 µM (≈ 0.277 µg/mL).
Take `C[C@@H]1CCCCCCCCC[C@H](OC(=O)CCC(=O)O)C(=O)/C=C/C(=O)O1`: the IC50 in test [1] was 3.1 µM. For the same compound, the minimum inhibitory concentration (MIC) in the test on Staphylococcus aureus came out at 0.4 µg/mL.
Take `CO[C@@]12[C@H](COC(N)=O)C3=C(C(=O)C(C)=C(N)C3=O)N1C[C@@H]1N[C@@H]12` [MITOMYCIN]: the MIC in test [1] (time 72 hrs) was found to be 0.93 µM (≈ 0.311 µg/mL).
